Reference: patent US20030064082A1, “Antipsychotic agents stimulate neurogenesis in brain” (priority 2001, published 2003)
Entries after “also recorded” stand apart in the source; their conditions may differ.

Experiments:
[1] = tested on: subventricular zone (SVZ); assay: BrdU uptake (newly divided cells) in the subventricular zone of rats after 21 days of drug in drinking water; type: in vivo, rat; settings: for BrdU positive (BrdU+) cells / mean cell counts in the subventricular zone versus vehicle control: rats, 21 days in drinking water, single BrdU injection at day 20
Procedure: Groups of age- and weight-matched (five rats per group) adult male Wistar rats were fed ad libitum for 21 day s with either Haloperidol, 0.4 mg/kg/day, Risperidone (Janssen Pharmaceutica Res Foundation, Piscataway, N.J.) 0.5 mg/kg/day, or Olanzapine (Ely Lilly and Co., Indianapolis, Ind.) 2 mg/kg/day. Control groups received vehicle only. All drugs were administered in drinking water. Water bottles were tightly sealed with leak-proof lids. Fluid intake was measured for each animal for every 3 days and fresh drug was replaced accordingly to maintain the daily dosage.
On the 20th day of treatment, bromodeoxyuridine (BrdU, Sigma Chemical, St. Louis, Mo.), dissolved in distilled water, was injected intraperitonally in a volume of 0.3 ml or less per rat to deliver a dosage of 50 mg/kg, for the labeling of newly divided cells. One day after the BrdU injection, rats were anesthetized under ketamine (100 mg/kg) and xylazine (0.6 mg/kg) anesthesia with saline cardiac perfusion. Brains were removed quickly, placed in a brain matrix, cut into 5-mm blocks, cryoprotected in O.C.T. (Tissue-Tek) compound and frozen in isopentane in liquid nitrogen. Samples were stored at −80° C. until immunostaining.
Coronal brain sections, 10 μm-thick, were cut in a cryotome. Every fifth section was processed for immunohistochemistry with anti-BrdU antibody (Sigma Chemical). Sections were fixed in 4% paraformaldehyde and denatured in 2 N HCl for 30 min. Following incubation with primary antibody, sections were developed with avidin-biotin reagents using a biotinylated donkey anti-mouse-IgG antibody (Vector Labs., Burlingame, Calif.) and diaminobenzidine (DAB). Separate investigators performed sectioning, immunostaining, and counting of BrdU-positive cells in a double-blinded manner. To ensure consistency, one investigator who was unaware of treatment and staining protocols was responsible for counting BrdU-positive cells for the entire study.
SVZ was identified as the cell layer ventral and lateral to the ependymal layer. […] Cells along the lateral aspect of the subependymal region including the dorsolateral angle of the ventricle on both left and right hemispheres, and ventral to the corpus callosum were counted. The few BrdU-positive cells present outside this area were not counted. Five sections from each animal were counted and the average total BrdU positive cells calculated. To validate the BrdU staining of newly divided cells, an antibody against proliferating cell nuclear antigen (PCNA), from Sigma Chemical, was also used.
In these experiments, the effects on neurogenesis of treatment of animals with the atypical neuroleptics, Risperidone and Olanzapine, was assessed. […] In the experiments shown in FIG. 1, rats were treated with a vehicle, a typical neuroleptic, or an atypical neuroleptic for 21 day s. A single injection of BrdU was given to each rat intraperitoneally at day 20. Sections from brains of each animal were prepared and frozen for subsequent analysis. For immunostaining, frozen sections from rat brain were incubated with a monoclonal mouse-anti BrdU antibody, and a biotinylated anti-mouse secondary antibody and developed with avidin-biotin reagent and DAB. Shown in FIG. 1 is the staining for: (A) a vehicle-treated control rat; (B) a Haloperidol-treated rat; (C) a Risperidone-treated rat; and (D) an Olanzapine-treated rat. The arrows show some of the BrdU+ cells. […]
For quantification, the number of BrdU positive cells was counted for each group. […]

[2] = tested on: hippocampal dentate gyrus; assay: Double immunofluorescent staining BrdU/NeuN in the hippocampal dentate gyrus; type: in vivo, rat; settings: 21 days, single BrdU injection at day 20
Procedure: Tissue sections from intestinal mucosa, where many new cells are generated, were used as positive controls. […] Omission of the primary, anti-BrdU antibody provided additional negative controls.
(§1) In these experiments, the effect of the atypical neuroleptics in the hippocampus was evaluated. In the experiments shown in FIG. 5, rats were treated with vehicle, a typical neuroleptic (Haloperidol) (data not shown), or an atypical neuroleptic (Risperidone or Olanzapine) for 21 day s. A single injection of BrdU was given to each rat intraperitoneally at day 20. Frozen sections from rat brain were incubated with a monoclonal mouse-anti BrdU antibody and a biotinylated anti-mouse secondary antibody and developed with avidin-biotin reagent and DAB.
The animal was treated with Olanzapine for 21 day s and a single injection of BrdU given intraperitoneally at day 20. Frozen sections were incubated with sheep-anti BrdU and mouse-anti NeuN antibodies. Secondary antibodies were a combination of Cy-3-conjugated anti-sheep antibody and Cy-2-conjugated anti-mouse antibody.

cognition = assay: Cognitive performance of rats under long-term treatment; type: in vivo, rat; settings: up to 90 days of treatment
Procedure: Atypical Neuroleptics Improve Cognition In this experiment, the effects of atypical neuroleptics and typical neuroleptics on cognition was evaluated. Rats were treated with either vehicle (water), Haloperidol, or Risperidone.

[3] = tested on: subventricular zone (SVZ); assay: Double immunofluorescent staining BrdU/NeuN and BrdU/GFAP in the subventricular zone, weekly BrdU injection; type: in vivo, rat; settings: 21 days, BrdU injected at day 7, 14 and 20
Text: A second study was undertaken in which 15 rats were divided in three treatment groups: Olanzapine-, haldol-, and vehicle-treated. In this study, BrdU injection was given once a week (starting on day 7) and one animal from each group was killed on days 14, 21, 28, 35, and 42. Tissue sections from this study were used in double immunofluorescent staining for either BrdU/NeuN or BrdU/glial fibrillary acidic protein (GFAP).
To evaluate whether the BrdU-positive cells expressed any neuronal or astrocytic markers, sections were subjected to double immunofluorescent staining, using sheep anti-BrdU serum (Biodesign) in combination with either a mouse anti-NeuN (as a neuronal marker, Chemicon, Tememcula, Calif.) or a rabbit anti-glial fibrillary acidic protein (an astrocytic marker, Dako, Carpinteria, Calif.), and the appropriate secondary antibodies that had been conjugated with cyanin dyes were used for visualization (Jackson Lab, Bar Harbor, Me.). […]
To evaluate whether the BrdU-positive cells express any cell type-specific marker, double immunofluoresence microscopy using either anti-NeuN or anti-GFAP antibody in combination with anti-BrdU antibody was performed. […] No BrdU+/GFAP+ cells were detected. Although the double-stained (BrdU+/NeuN+) cells were not quantified, there were clearly more BrdU+/NeuN+ in rats treated with the atypical neuroleptics than that in the untreated control rats.

[4] = tested on: hippocampal dentate gyrus; assay: BrdU+ cell count in the hippocampal dentate gyrus; type: in vivo, rat; settings: 21 days, single BrdU injection at day 20
Procedure: as §1

superoxide dismutase = settings: in vitro; cited from earlier work
[5] = tested on: nerve growth factor (NGF)-receptor; settings: in vitro; cited from earlier work
nerve growth factor = settings: in vitro; cited from earlier work
[6] = tested on: fibroblast growth factor-2; settings: in vivo; cited from earlier work

Structure (SMILES)	mean cell counts in the subventricular zone versus Olanzapine and Risperidone (Tukey multiple comparison) ([1]; 21 days, n=5)	BrdU positive (BrdU+) cells / mean cell counts in the subventricular zone versus vehicle control [1]	BrdU positive (BrdU+) cells / mean cell counts in the subventricular zone versus vehicle control ([1]; listed as Haldolperidol)	NeuN (or GFAP) expression of BrdU+ cells in the hippocampus [2]	cognitive performance as compared to the vehicle (cognition)	BrdU+/GFAP+ cells in the SVZ [3]	BrdU+/NeuN+ cells in the SVZ [3]	average numbers of BrdU-positive cells in the hippocampal dentate gyrus versus control group [4]	statistical significance of the increase in neurogenesis in the hippocampus [4]	expression of superoxide dismutase (superoxide dismutase)	expression of nerve growth factor (NGF)-receptor [5]	expression of nerve growth factor (nerve growth factor)	fibroblast growth factor-2 (FGF-2) expression [6]
O=C(CCCN1CCC(O)(c2ccc(Cl)cc2)CC1)c1ccc(F)cc1 [Haloperidol]	significantly lower	No differences	not significantly different	did not express NeuN (or GFAP)	significantly impaired								
Cc1cc2c(s1)Nc1ccccc1N=C2N1CCN(C)CC1 [Olanzapine, 2-methyl-4-(4-methyl-1-piperazinyl)-10H-thieno[2,3-b] [1,5]benzodiazepine]		significant increase; also recorded: significantly higher		3 BrdU+/NeuN− cells in the subgranular layer and a BrdU+/NeuN+ cell in the apical region of the granular cell layer		No BrU+/GFAP+ cells were detected; also recorded: essentially none	numerous; also recorded: increase	higher than the control group	not statistically significant	induces the expression	induces the expression	stimulate expression	
CN1CCN(C2=Nc3cc(Cl)ccc3Nc3ccccc32)CC1 [Clozapine, 8-chloro-11-(4-methyl-1-piperazinyl)-5H-dibenzo [b,e] [1,4] diazepine]													increases; also recorded: modulate
Cc1nc2n(c(=O)c1CCN1CCC(c3noc4cc(F)ccc34)CC1)CCCC2 [Risperidone, 3-[2-[4-(6-fluoro-1,2-benzisoxazol-3-yl)-1-piperidinyl]ethyl]-6,7,8,9-tetrahydro-2-methyl-4H-pyrido[1,2-a]pyrimidin-4-one]		significant increase; also recorded: significantly higher			improved performance			higher than the control group	not statistically significant				
